Tested on: moderate-to-severe chronic spontaneous urticaria (CSU)
Assay: Phase 2 CSU study: itch severity score over 7 days (ISS7)
Assay type: in vivo, human
Conditions: for ISS7 Median / ISS7 Mean (SD): End of Study
Text: The study comprises a 12 week, randomized, double-blind, placebo-controlled, multi-center, dose-ranging efficacy and safety phase, followed by a 40 week open label extension (OLE) phase (see FIG. 1). The study consists of three phases and an optional OLE phase. […] Clinically, CSU is characterized by the spontaneous and recurrent appearance of pruritic hives. The proposed primary endpoints were the UAS7 at Week 12 in EU and EU reference countries and the ISS7 in the US. Regardless of where a participant was from, all assessments were the same. The UAS7 score is a composite score containing both the HSS7 and the ISS7. This allowed a global assessment of the two key components of urticaria: hives and itch. […] The UAS is a validated PRO measure. […] The daily UAS scores range from 0 to 6 point/day. […] Patients were to complete the UAS using the e-diary. […] The following secondary endpoints were to be analyzed using the same approach as for the primary endpoint: • Change from baseline in UAS7 at Week 4 • Change from baseline in UAS7 at Week 12 (for US and US reference countries) • Change from baseline in ISS7 at Week 12 (except US and US reference countries) • Change from baseline in HSS7 at Week 12

[1] = 400 mg TID, Prior Omalizumab Use
[2] = ITT Population, 400 mg BID, Week 2
[3] = ITT Population, 400 mg QPM, Week 3
[4] = ITT Population, 400 mg QPM, Week 5
[5] = ITT Population, 400 mg TID, Week 1
[6] = ITT Population, 400 mg TID, Week 12
[7] = ITT population, 400 mg BID, Week 1
[8] = ITT population, 400 mg BID, Week 3
[9] = ITT population, 400 mg BID, Week 4
[10] = ITT population, 400 mg BID, Week 5
[11] = ITT population, 400 mg BID, Week 6
[12] = ITT population, 400 mg BID, Week 7
[13] = ITT population, 400 mg BID, Week 8
[14] = ITT population, 400 mg BID, Week 9
[15] = ITT population, 400 mg BID, Week 10
[16] = ITT population, 400 mg BID, Week 11
[17] = ITT population, 400 mg BID, Week 12
[18] = ITT population, 400 mg QPM, Week 1
[19] = ITT population, 400 mg QPM, Week 2

CC(C)(C=C(C#N)C(=O)N1CCC[C@@H](n2nc(-c3ccc(Oc4ccccc4)cc3F)c3c(N)ncnc32)C1)N1CCN(C2COC2)CC1 [rilzabrutinib, (R)-2-[3-[4-amino-3-(2-fluoro-4-phenoxy-phenyl)pyrazolo[3,4-d]pyrimidin-1-yl]piperidine-1-carbonyl]-4-methyl-4-[4-(oxetan-3-yl)piperazin-1-yl]pent-2-enenitrile]
ISS7 Median (400 mg QPM, Omalizumab-Naïve): 2.00
ISS7 Mean (SD) (400 mg TID, Omalizumab-Naïve): 11.40 (6.11)
ISS7 Mean (SD) [1]: 9.50 (6.36)
ISS7 Median [1]: 9.50
Imputed non-responder n (%) (ISS7 reduction of 5 points or more) [2]: 2 (4.9) n (%)
Non-responder n (%) (ISS7 reduction of 5 points or more) [2]: 19 (46.3) n (%)
OR for rilzabrutinib vs. placebo (ISS7 reduction of 5 points or more) [2]: 2.693
RRD (%) for rilzabrutinib vs. placebo (ISS7 reduction of 5 points or more) [2]: 23.6%
Responder n (%) (ISS7 reduction of 5 points or more) [2]: 22 (53.7) n (%)
Imputed non-responder n (%) (ISS7 reduction of 5 points or more) [3]: 0 n (%)
Non-responder n (%) (ISS7 reduction of 5 points or more) [3]: 20 (52.6) n (%)
OR for rilzabrutinib vs. placebo (ISS7 reduction of 5 points or more) [3]: 1.881
RRD (%) for rilzabrutinib vs. placebo (ISS7 reduction of 5 points or more) [3]: 15.9%
Responder n (%) (ISS7 reduction of 5 points or more) [3]: 18 (47.4) n (%)
Imputed non-responder n (%) (ISS7 reduction of 5 points or more) [4]: 2 (5.3) n (%)
Non-responder n (%) (ISS7 reduction of 5 points or more) [4]: 21 (55.3) n (%)
OR for rilzabrutinib vs. placebo (ISS7 reduction of 5 points or more) [4]: 0.781
RRD (%) for rilzabrutinib vs. placebo (ISS7 reduction of 5 points or more) [4]: 6.2%
Responder n (%) (ISS7 reduction of 5 points or more) [4]: 17 (44.7) n (%)
Imputed non-responder n (%) (ISS7 reduction of 5 points or more) [5]: 0 n (%)
Non-responder n (%) (ISS7 reduction of 5 points or more) [5]: 14 (34.1) n (%)
OR for rilzabrutinib vs. placebo (ISS7 reduction of 5 points or more) [5]: 6.428
RRD (%) for rilzabrutinib vs. placebo (ISS7 reduction of 5 points or more) [5]: 42.3%
Responder n (%) (ISS7 reduction of 5 points or more) [5]: 27 (65.9) n (%)
Imputed non-responder n (%) (ISS7 reduction of 5 points or more) [6]: 11 (26.8) n (%)
Non-responder n (%) (ISS7 reduction of 5 points or more) [6]: 18 (43.9) n (%)
OR for rilzabrutinib vs. placebo (ISS7 reduction of 5 points or more) [6]: 1.371
RRD (%) for rilzabrutinib vs. placebo (ISS7 reduction of 5 points or more) [6]: 7.9%
Responder n (%) (ISS7 reduction of 5 points or more) [6]: 23 (56.1) n (%)
Imputed non-responder n (%) (ISS7 reduction of 5 points or more) [7]: 1 (2.4) n (%)
Non-responder n (%) (ISS7 reduction of 5 points or more) [7]: 21 (51.2) n (%)
OR for rilzabrutinib vs. placebo (ISS7 reduction of 5 points or more) [7]: 3.262
RRD (%) for rilzabrutinib vs. placebo (ISS7 reduction of 5 points or more) [7]: 25.5%
Responder n (%) (ISS7 reduction of 5 points or more) [7]: 20 (48.8) n (%)
Imputed non-responder n (%) (ISS7 reduction of 5 points or more) [8]: 1 (2.4) n (%)
Non-responder n (%) (ISS7 reduction of 5 points or more) [8]: 19 (46.3) n (%)
OR for rilzabrutinib vs. placebo (ISS7 reduction of 5 points or more) [8]: 2.451
RRD (%) for rilzabrutinib vs. placebo (ISS7 reduction of 5 points or more) [8]: 21.5%
Responder n (%) (ISS7 reduction of 5 points or more) [8]: 22 (53.7) n (%)
Imputed non-responder n (%) (ISS7 reduction of 5 points or more) [9]: 4 (9.8) n (%)
Non-responder n (%) (ISS7 reduction of 5 points or more) [9]: 19 (46.3) n (%)
RRD (%) for rilzabrutinib vs. placebo (ISS7 reduction of 5 points or more) [9]: 5.6%
Responder n (%) (ISS7 reduction of 5 points or more) [9]: 22 (53.7) n (%)
Imputed non-responder n (%) (ISS7 reduction of 5 points or more) [10]: 5 (12.2) n (%)
Non-responder n (%) (ISS7 reduction of 5 points or more) [10]: 18 (43.9) n (%)
RRD (%) for rilzabrutinib vs. placebo (ISS7 reduction of 5 points or more) [10]: 2.7%
Responder n (%) (ISS7 reduction of 5 points or more) [10]: 23 (56.1) n (%)
Imputed non-responder n (%) (ISS7 reduction of 5 points or more) [11]: 4 (9.8) n (%)
Non-responder n (%) (ISS7 reduction of 5 points or more) [11]: 20 (48.8) n (%)
RRD (%) for rilzabrutinib vs. placebo (ISS7 reduction of 5 points or more) [11]: 2.7%
Responder n (%) (ISS7 reduction of 5 points or more) [11]: 21 (51.2) n (%)
Imputed non-responder n (%) (ISS7 reduction of 5 points or more) [12]: 4 (9.8) n (%)
Non-responder n (%) (ISS7 reduction of 5 points or more) [12]: 19 (46.3) n (%)
OR for rilzabrutinib vs. placebo (ISS7 reduction of 5 points or more) [12]: 1.258
RRD (%) for rilzabrutinib vs. placebo (ISS7 reduction of 5 points or more) [12]: 5.5%
Responder n (%) (ISS7 reduction of 5 points or more) [12]: 22 (53.7) n (%)
Imputed non-responder n (%) (ISS7 reduction of 5 points or more) [13]: 5 (12.2) n (%)
Non-responder n (%) (ISS7 reduction of 5 points or more) [13]: 16 (39.0) n (%)
OR for rilzabrutinib vs. placebo (ISS7 reduction of 5 points or more) [13]: 1.388
RRD (%) for rilzabrutinib vs. placebo (ISS7 reduction of 5 points or more) [13]: 8.3%
Responder n (%) (ISS7 reduction of 5 points or more) [13]: 25 (61.0) n (%)
Imputed non-responder n (%) (ISS7 reduction of 5 points or more) [14]: 9 (22.0) n (%)
Non-responder n (%) (ISS7 reduction of 5 points or more) [14]: 19 (46.3) n (%)
OR for rilzabrutinib vs. placebo (ISS7 reduction of 5 points or more) [14]: 1.233
RRD (%) for rilzabrutinib vs. placebo (ISS7 reduction of 5 points or more) [14]: 5.6%
Responder n (%) (ISS7 reduction of 5 points or more) [14]: 22 (53.7) n (%)
Imputed non-responder n (%) (ISS7 reduction of 5 points or more) [15]: 10 (24.4) n (%)
Non-responder n (%) (ISS7 reduction of 5 points or more) [15]: 22 (53.7) n (%)
OR for rilzabrutinib vs. placebo (ISS7 reduction of 5 points or more) [15]: 0.786
RRD (%) for rilzabrutinib vs. placebo (ISS7 reduction of 5 points or more) [15]: −6.2%
Responder n (%) (ISS7 reduction of 5 points or more) [15]: 19 (46.3) n (%)
Imputed non-responder n (%) (ISS7 reduction of 5 points or more) [16]: 9 (22.0) n (%)
Non-responder n (%) (ISS7 reduction of 5 points or more) [16]: 19 (46.3) n (%)
OR for rilzabrutinib vs. placebo (ISS7 reduction of 5 points or more) [16]: 0.837
RRD (%) for rilzabrutinib vs. placebo (ISS7 reduction of 5 points or more) [16]: −4.5%
Responder n (%) (ISS7 reduction of 5 points or more) [16]: 22 (53.7) n (%)
Imputed non-responder n (%) (ISS7 reduction of 5 points or more) [17]: 14 (34.1) n (%)
Non-responder n (%) (ISS7 reduction of 5 points or more) [17]: 21 (51.2) n (%)
OR for rilzabrutinib vs. placebo (ISS7 reduction of 5 points or more) [17]: 1.063
RRD (%) for rilzabrutinib vs. placebo (ISS7 reduction of 5 points or more) [17]: 1.6%
Responder n (%) (ISS7 reduction of 5 points or more) [17]: 20 (48.8) n (%)
Imputed non-responder n (%) (ISS7 reduction of 5 points or more) [18]: 0 n (%)
Non-responder n (%) (ISS7 reduction of 5 points or more) [18]: 25 (65.8) n (%)
OR for rilzabrutinib vs. placebo (ISS7 reduction of 5 points or more) [18]: 1.855
RRD (%) for rilzabrutinib vs. placebo (ISS7 reduction of 5 points or more) [18]: 12.7%
Responder n (%) (ISS7 reduction of 5 points or more) [18]: 13 (34.2) n (%)
Imputed non-responder n (%) (ISS7 reduction of 5 points or more) [19]: 0 n (%)
Non-responder n (%) (ISS7 reduction of 5 points or more) [19]: 23 (60.5) n (%)
OR for rilzabrutinib vs. placebo (ISS7 reduction of 5 points or more) [19]: 1.662
Responder n (%) (ISS7 reduction of 5 points or more) [19]: 15 (39.5) n (%)
Imputed non-responder n (%) (ISS7 reduction of 5 points or more) (ITT population, 400 mg QPM, Week 4): 1 (2.6) n (%)

From patent publication US20260256792A1, “TREATMENT OF CHRONIC SPONTANEOUS URTICARIA BY ADMINISTERING (R)-2-[3-[4-AMINO-3-(2-FLUORO-4-PHENOXY-PHENYL)PYRAZOLO[3,4-D]PYRIMIDIN-1-YL]PIPERIDINE-1-CARBONYL]-4-METHYL-4-[4-(OXETAN-3-YL)PIPERAZIN-1-YL]PENT-2-ENENITRILE” (priority 2023, published 2026)
